Legend:
Assay type in all cases: in vivo
[1] = test system: Triticum aestivum (spring wheat), TRZAS; assay: Greenhouse postemergence safening trial, visual injury on spring wheat
Protocol: (§1) Greenhouse Trial Methodology-Evaluation of Postemergence Herbicidal […] in Crops […] When required to ensure good germination and healthy plants, a fungicide treatment and/or other chemical or physical treatment was applied. The plants were grown for 7-36 days (d) in a greenhouse with an approximate 14-hour (h) photoperiod which was maintained at about 23° C. during the day and 22° C. during the night. Nutrients and water were added on a regular basis and supplemental lighting was provided with overhead metal halide 1000-Watt lamps as necessary. The plants were employed for testing when they reached the second or third true leaf stage. Emulsifiable concentrates of each of each pyridine carboxylate herbicide (Compound A or Compound B) were prepared at 100 grams acid equivalent per liter (g ae/L). […] The concentrated stock solutions were further diluted with an aqueous mixture of 1.25% […] or MSO® Concentrate with LECI-TECH® to obtain stock solutions at reduced application rates for each herbicide. Spray solutions of the herbicide combinations (Compound A or Compound B plus safener) were prepared by adding weighed amounts or aliquots of the safener to the stock solutions of Compound A or Compound B to form 12-mL spray solutions in two-way combinations. […] Control plants were sprayed in the same manner with the solvent blank. All herbicide (component a) application rates are given as “g ae/ha” and all safener (component b) application rates are given as “g ai/ha.” The treated plants and control plants were placed in a greenhouse as described above and watered by sub-irrigation to prevent wash-off of the test compounds.

[2] = test system: Triticum aestivum (winter wheat), TRZAW; assay: Greenhouse postemergence safening trial, visual injury on winter wheat; conditions: safener alone 40 g/ha
Protocol: as §1

[3] = test system: Triticum aestivum (durum wheat), TRZDU; assay: Greenhouse postemergence safening trial, visual injury on durum wheat; conditions: safener alone 40 g/ha
Protocol: as §1

[4] = test system: Hordeum vulgare (spring barley), HORVS; assay: Greenhouse postemergence safening trial, visual injury on spring barley
Protocol: as §1

[5] = test system: Hordeum vulgare (winter barley), HORVW; assay: Greenhouse postemergence safening trial, visual injury on winter barley; conditions: safener alone 40 g/ha
Protocol: as §1

[6] = test system: Avena sativa (common oat), AVESA; assay: Greenhouse postemergence safening trial, visual injury on common oat; conditions: safener alone 40 g/ha
Protocol: as §1

[7] = test system: Brassica napus (winter rape), BRSNW; assay: Greenhouse postemergence trial, visual injury on winter rape
Protocol: as §1

[8] = test system: Matricaria chamomilla (wild chamomile), MATCH; assay: Greenhouse postemergence trial, visual injury on wild chamomile
Protocol: as §1

[9] = test system: Salsola kali (Russian thistle), SASKR; assay: Greenhouse postemergence trial, visual injury on Russian thistle
Protocol: as §1

CNC.O=C(O)COc1ccc(Cl)c2cccnc12 [CQC-DMA, cloquintocet-dimethylammonium salt]
0%: % visual injury, Ob ([1]; safener alone 10 g/ha) | % visual injury, Ob ([1]; safener alone 20 g/ha) | % visual injury, Ob ([1]; safener alone 40 g/ha) | % visual injury Δ [2] | % visual injury, Ob [2] | % visual injury, Ob [3] | % visual injury, Ob ([4]; safener alone 10 g/ha) | % visual injury, Ob ([4]; safener alone 20 g/ha) | % visual injury, Ob ([4]; safener alone 40 g/ha) | % visual injury, Ob [5] | % visual injury, Ob [6] | % visual injury, Ob ([7]; safener alone 10 g/ha) | % visual injury, Ob ([7]; safener alone 20 g/ha) | % visual injury, Ob ([7]; safener alone 40 g/ha) | % visual injury, Ob ([8]; safener alone 10 g/ha) | % visual injury, Ob ([8]; safener alone 20 g/ha) | % visual injury, Ob ([8]; safener alone 40 g/ha) | % visual injury, Ob ([9]; safener alone 10 g/ha) | % visual injury, Ob ([9]; safener alone 20 g/ha) | % visual injury, Ob ([9]; safener alone 40 g/ha)

CC(O)CN(CC(C)O)CC(C)O.O=C(O)COc1ccc(Cl)c2cccnc12 [CQC-TIPA, cloquintocet-triisopropanolamine salt]
0%: % visual injury, Ob ([1]; safener alone 10 g/ha) | % visual injury, Ob ([1]; safener alone 20 g/ha) | % visual injury, Ob ([1]; safener alone 40 g/ha) | % visual injury, Ob ([4]; safener alone 10 g/ha) | % visual injury, Ob ([4]; safener alone 20 g/ha) | % visual injury, Ob ([4]; safener alone 40 g/ha) | % visual injury, Ob ([7]; safener alone 10 g/ha) | % visual injury, Ob ([7]; safener alone 20 g/ha) | % visual injury, Ob ([7]; safener alone 40 g/ha) | % visual injury, Ob ([8]; safener alone 10 g/ha) | % visual injury, Ob ([8]; safener alone 20 g/ha) | % visual injury, Ob ([8]; safener alone 40 g/ha) | % visual injury, Ob ([9]; safener alone 10 g/ha) | % visual injury, Ob ([9]; safener alone 20 g/ha) | % visual injury, Ob ([9]; safener alone 40 g/ha)

COC(=O)COc1ccc(Cl)c2cccnc12 [CQC-methyl, cloquintocet-methyl]
0%: % visual injury, Ob ([1]; safener alone 10 g/ha) | % visual injury, Ob ([1]; safener alone 20 g/ha) | % visual injury, Ob ([1]; safener alone 40 g/ha) | % visual injury, Ob ([4]; safener alone 10 g/ha) | % visual injury, Ob ([4]; safener alone 20 g/ha) | % visual injury, Ob ([4]; safener alone 40 g/ha) | % visual injury, Ob ([7]; safener alone 10 g/ha) | % visual injury, Ob ([7]; safener alone 20 g/ha) | % visual injury, Ob ([7]; safener alone 40 g/ha) | % visual injury, Ob ([8]; safener alone 10 g/ha) | % visual injury, Ob ([8]; safener alone 20 g/ha) | % visual injury, Ob ([8]; safener alone 40 g/ha) | % visual injury, Ob ([9]; safener alone 10 g/ha) | % visual injury, Ob ([9]; safener alone 20 g/ha) | % visual injury, Ob ([9]; safener alone 40 g/ha)

From patent US12310364B2, “Safened compositions comprising pyridine carboxylate herbicides and cloquintocet” (Corteva Agriscience LLC, priority 2018, dated 2025)
